# Assay results published in patent US20230255219A1, “SLOW RELEASE COMPOSITE ACTIVE FILMS/PACKAGING TO REDUCE FOODBORNE PATHOGENS AND IMPROVE SHELF LIFE OF RAW AND READY TO EAT FOODS” (The Penn State Research Foundation, priority 2019, published 2023).
# Legend:
# STEC cocktail [1] = format: cell-based
# Salmonella spp. cocktail [2] = format: cell-based
# [3] = system: L. monocytogenes cocktail; format: cell-based, Listeria monocytogenes
# S. aureus cocktail [4] = format: cell-based, Staphylococcus aureus
# STEC cocktail [5] = format: cell-based; remark: listed apart in the source
# Salmonella spp. cocktail [6] = assay: Minimum bactericidal concentration (MBC), plating of wells on selective media; format: cell-based
# Protocol: (§1) A resazurin indicator-based, 96-well microplate dilution method (Elshikh et al., 2016) was used for in vitro determination of MIC and MBC of LAE, nisin and thymol against different foodborne pathogens. Overnight cultures were grown in TSB (37° C.) and a cocktail of STEC, Salmonella spp., L. monocytogenes and S. aureus was prepared by mixing equal volumes of the three corresponding strains to obtain approximately 8 log10 CFU/mL of the pathogens. Bacterial cells were washed by centrifugation at 8000 rpm/10 minutes, and cell pellets were re-suspended in the same volume of sterile Mueller Hinton Broth (MHB; Difco).
# (§2) FIG. 1 illustrates the resazurin indicator-based, 96-well microplate dilution method for MIC determination of different antimicrobials against bacterial cocktails. A 100,000 IU/mL concentration of nisin (VWR) was dissolved in HCl 0.02N; 10% thymol (VWR) was prepared in concentrated ethanol; and 10% LAE (MB) was prepared in sterile distilled water. All antimicrobials were sterilized by filtration through a 0.22 μm filter (Pall; Ann Arbor, Mich.).). Each antimicrobial was diluted in sterile MHB to obtain a final concentration of 50,000 IU/mL of nisin, 5% thymol, and 5% LAE. Using a multi-channel pipette (Eppendorf; Haoppauge, N.Y.), one hundred μL of each antimicrobial in MHB was dispensed into a row in a 96-well microplate. Subsequent serial dilutions of the antimicrobials were made in MHB using the multi-channel pipette by transferring and mixing 50 μL of each compound to obtain antimicrobial concentrations of nisin (50,000-390.6 IU/mL), thymol (5-0.039%) and LAE (5-0.039%). Bacterial cocktails were diluted 1:100 in a sterile MHB to reach a concentration of approximately 6 log10 CFU/mL, with 50 μL of each cocktail added to the respective well. […]
# (§3) The MBC was determined by directly inoculating the content of wells with concentrations higher than the MIC value on selective growth media. […] The MBC value was determined as the lowest concentration when there were no bacterial colonies observed (Elshikh et al., 2016).
# [7] = system: L. monocytogenes cocktail; assay: as above; format: cell-based, Listeria monocytogenes
# Protocol: as §1, §2, §3
# S. aureus cocktail [8] = assay: as above; format: cell-based, Staphylococcus aureus
# Protocol: as §1, §2, §3
# [9] = system: all tested bacterial pathogens (STEC, Salmonella spp., L. monocytogenes, S. aureus); format: cell-based
# [10] = cited from earlier work
compound,measurement,setting,value
nisin,"MIC, Nisin",STEC cocktail [1]; 24 h at 37° C.,"Nil (key: Nil indicates there was no growth inhibition, nor killing effect at ≤ 50,000 IU/mL)"
same,"MIC, Nisin",Salmonella spp. cocktail [2]; 24 h at 37° C.,"Nil (key: Nil indicates there was no growth inhibition, nor killing effect at ≤ 50,000 IU/mL)"
same,"MIC, Nisin",[3]; 24 h at 37° C.,"Nil (key: Nil indicates there was no growth inhibition, nor killing effect at ≤ 50,000 IU/mL)"
same,"MIC, Nisin",S. aureus cocktail [4]; 24 h at 37° C.,"Nil (key: Nil indicates there was no growth inhibition, nor killing effect at ≤ 50,000 IU/mL)"
same,"MBC, Nisin",STEC cocktail [5],"Nil (key: Nil indicates there was no growth inhibition, nor killing effect at ≤ 50,000 IU/mL)"
same,"MBC, Nisin",Salmonella spp. cocktail [6],"Nil (Nil indicates there was no growth inhibition, nor killing effect at ≤ 50,000 IU/mL)"
same,"MBC, Nisin",[7],"Nil (Nil indicates there was no growth inhibition, nor killing effect at ≤ 50,000 IU/mL)"
same,"MBC, Nisin",S. aureus cocktail [8],"Nil (Nil indicates there was no growth inhibition, nor killing effect at ≤ 50,000 IU/mL)"
same,antibacterial activity of nisin in MIC and MBC experiments,[9],very poor antibacterial activity
"CCCCCCCCCCCC(=O)N[C@@H](CCCN=C(N)N)C(=O)OCC [LAE, lauric arginate]","MIC, LAE",STEC cocktail [1]; 24 h at 37° C.,0.078 % (V/V)
same,"MIC, LAE",Salmonella spp. cocktail [2]; 24 h at 37° C.,0.078 % (V/V)
same,"MIC, LAE",[3]; 24 h at 37° C.,0.078 % (V/V)
same,"MIC, LAE",S. aureus cocktail [4]; 24 h at 37° C.,0.078 % (V/V)
same,"MBC, LAE",Salmonella spp. cocktail [6],0.625 % (V/V)
same,"MBC, LAE",[7],0.313 % (V/V)
same,"MBC, LAE",S. aureus cocktail [8],0.313 % (V/V)
same,concentration of LAE that inhibited all tested bacterial pathogens,[9],0.078%
same,metabolism of LAE in the human body,[10],rapidly metabolized in the human body to lauric acid and arginine
"Cc1ccc(C(C)C)c(O)c1 [Thymol, thymol]","MIC, Thymol",STEC cocktail [1],1.25 % (W/V)
same,"MIC, Thymol",Salmonella spp. cocktail [2],0.625 % (W/V)
same,"MIC, Thymol",[3],0.625 % (W/V)
same,"MIC, Thymol",S. aureus cocktail [4],0.156 % (W/V)
same,"MBC, Thymol",STEC cocktail [5],2.5 % (W/V)
same,"MBC, Thymol",Salmonella spp. cocktail [6],2.5 % (W/V)
same,"MBC, Thymol",[7],1.25 % (W/V)
same,"MBC, Thymol",S. aureus cocktail [8],1.25 % (W/V)
